Source: US20170114021A1, “HALOGEN-SUBSTITUTED COMPOUNDS” (priority 2014, published 2017)
Read-outs that look alike come from different tables or passages of the source.

Assays:
[1] = log P by HPLC on reversed-phase column (C18), EEC Directive 79/831 Annex V.A8; format: physicochemical
Experimental: ^a) Unless indicated otherwise, the following method was used to determine the log P values and masses: The determination of the given log P values was carried out in accordance with EEC Directive 79/831 Annex V.A8 by HPLC (High Performance Liquid Chromatography) on a reversed-phase column (C18). Agilent 1100 LC system; 50*4.6 Zorbax Eclipse Plus C18 1.8 micron; mobile phase A: acetonitrile (0.1% formic acid); mobile phase B: water (0.09% formic acid); linear gradient from 10% acetonitrile to 95% acetonitrile in 4.25 min, then 95% acetonitrile for a further 1.25 min; oven temperature 55° C.; flow rate: 2.0 ml/min. Mass detection is effected by means of an Agilend MSD system.

Spodoptera frugiperda = Spodoptera frugiperda spray test (SPODFR); format: in vivo; details: application rate 100 g/ha; maize leaf discs; after 7 days
Experimental: Spodoptera frugiperda—Spray Test (SPODFR)
Solvent: 78.0 parts by weight of acetone • • 1.5 parts by weight of dimethylformamide Emulsifier: alkylaryl polyglycol ether
(§1) To produce a suitable preparation of active compound, 1 part by weight of active compound is dissolved using the specified parts by weight of solvent and made up with water containing an emulsifier concentration of 1000 ppm until the desired concentration is attained. To produce further test concentrations, the preparation is diluted with emulsifier-containing water.
Leaf discs of maize (Zea mays) are sprayed with an active compound preparation of the desired concentration and, after drying, populated with caterpillars of the armyworm (Spodoptera frugiperda).
After 7 days, efficacy in % is determined. 100% means that all the caterpillars have been killed; 0% means that no caterpillars have been killed.

Phaedon cochleariae = Phaedon cochleariae spray test (PHAECO); format: in vivo; details: Chinese cabbage leaf discs, after 7 days
Experimental: Phaedon cochleariae—Spray Test (PHAECO) Solvent: 78.0 parts by weight of acetone • • 1.5 parts by weight of dimethylformamide Emulsifier: alkylaryl polyglycol ether
as §1
After 7 days, efficacy in % is determined. 100% means that all the beetle larvae have been killed; 0% means that no beetle larvae have been killed.

Tetranychus urticae = Tetranychus urticae spray test, OP-resistant (TETRUR); format: in vivo; details: application rate 100 g/ha; bean leaf discs; after 6 days
Experimental: Tetranychus urticae—Spray Test, OP-Resistant (TETRUR) Solvent: 78.0 parts by weight of acetone • • 1.5 parts by weight of dimethylformamide Emulsifier: alkylaryl polyglycol ether
as §1
Discs of bean leaves (Phaseolus vulgaris) infested by all stages of the greenhouse red spider mite (Tetranychus urticae) are sprayed with an active ingredient formulation of the desired concentration.
After 6 days, efficacy in % is determined. 100% means that all the spider mites have been killed; 0% means that no spider mites have been killed.

Ctenocephalides felis = Ctenocephalides felis oral test (CTECFE); format: in vivo; details: application rate 100 ppm in citrated cattle blood; after 2 days
Experimental: Ctenocephalides felis—Oral Test (CTECFE) Solvent: dimethyl sulphoxide
To produce a suitable preparation of active compound, 10 mg of active compound are mixed with 0.5 ml of dimethyl sulphoxide. Dilution with citrated cattle blood gives the desired concentration.
About 20 unfed adult cat fleas (Ctenocephalides felis) are placed into a chamber which is closed at the top and bottom with gauze. A metal cylinder whose bottom end is closed with parafilm is placed onto the chamber. The cylinder contains the blood/active compound preparation, which can be imbibed by the fleas through the parafilm membrane.
After 2 days, the kill in % is determined. 100% means that all of the fleas have been killed; 0% means that none of the fleas have been killed.

Boophilus microplus = Boophilus microplus injection test (BOOPMI Inj); format: in vivo; details: application rate 20 μg/animal; injection into abdomen
Experimental: Boophilus microplus—Injection Test (BOOPMI Inj) Solvent: dimethyl sulphoxide
To produce a suitable preparation of active compound, 10 mg of active compound are mixed with 0.5 ml of solvent and the concentrate is diluted with solvent to the desired concentration.
1 μl of the active compound solution is injected into the abdomen of 5 engorged adult female cattle ticks (Boophilus microplus). The animals are transferred into dishes and kept in a climate-controlled room.
The activity is assessed after the desired time by laying of fertile eggs. Eggs which are not visibly fertile are stored in a climate-controlled cabinet until the larvae hatch after about 42 days. An efficacy of 100% means that none of the ticks has laid any fertile eggs; 0% means that all the eggs are fertile.

Musca domestica = Musca domestica test (MUSCDO); format: in vivo; details: application rate 100 ppm; adult houseflies; after 2 days
Experimental: Musca domestica-Test (MUSCDO) Solvent: dimethyl sulphoxide
(§2) To produce a suitable preparation of active compound, 10 mg of active compound are mixed with 0.5 ml of dimethyl sulphoxide, and the concentrate is diluted with water to the desired concentration.
Vessels containing a sponge treated with sugar solution and the active compound preparation of the desired concentration are populated with 10 adult houseflies (Musca domestica).
After 2 days, the kill in % is determined. 100% means that all of the flies have been killed; 0% means that none of the flies have been killed.

Lucilia cuprina = Lucilia cuprina test (LUCICU); format: in vivo; details: application rate 100 ppm; L1 larvae; after 2 days
Experimental: Lucilia cuprina-Test (LUCICU) Solvent: dimethyl sulphoxide
as §2
About 20 L1 larvae of the Australian sheep blowfly (Lucilia cuprina) are transferred into a test vessel containing minced horsemeat and the active compound preparation of the desired concentration.
After 2 days, the kill in % is determined. 100% means that all the larvae have been killed; 0% means that no larvae have been killed.

[2] = reversed-phase C18 HPLC column, HPLC, C18, acetonitrile/water with formic acid gradient, read-out: log P

| SMILES | chromatographic logP [1, 2] | further results |
| --- | --- | --- |
| C#Cc1c(C(F)(F)F)c(C(F)(F)C(F)(F)F)nn1C [5-ethynyl-1-methyl-3-(pentafluoroethyl)-4-(trifluoromethyl)-1H-pyrazole] | 3.74 |  |
| Cn1nc(C(F)(F)C(F)(F)F)c(C(F)(F)F)c1-c1nnn(-c2ccc(Cl)c(C(=O)NC3CC3)c2)n1 [Ih-1, 2-chloro-N-cyclopropyl-5-{5-[1-methyl-3-(pentafluoroethyl)-4-(trifluoromethyl)-1H-pyrazol-5-yl]-2H-tetrazol-2-yl}benzamide] | 4.06 | efficacy (Spodoptera frugiperda): 100%; efficacy (Phaedon cochleariae; application rate 20 g/ha): 100%; efficacy (Tetranychus urticae): 90% |
| O=C(NC1CC1)c1cc(I)ccc1Cl [2-chloro-N-cyclopropyl-5-iodobenzamide] | 2.13 |  |
| CC(=O)c1c(C(F)(F)F)c(C(F)(F)C(F)(F)F)nn1C [1-[1-methyl-3-(pentafluoroethyl)-4-(trifluoromethyl)-1H-pyrazol-5-yl]ethanone] | 3.61 |  |
| Cn1nc(C(F)(F)C(F)(F)F)c(C(F)(F)F)c1-c1cnn(-c2ccc(Cl)c(C(=O)NC3CC3)c2)n1 [If-1, 2-chloro-N-cyclopropyl-5-{4-[1-methyl-3-(pentafluoroethyl)-4-(trifluoromethyl)-1H-pyrazol-5-yl]-2H-1,2,3-triazol-2-yl}benzamide] | 4.17 | efficacy (kill) (Ctenocephalides felis): 100%; efficacy (Spodoptera frugiperda): 100%; efficacy (Phaedon cochleariae; application rate 100 g/ha): 100%; efficacy (laying of fertile eggs) (Boophilus microplus): 100%; efficacy (Tetranychus urticae): 100%; efficacy (kill) (Musca domestica): 100%; efficacy (kill) (Lucilia cuprina): 100% |
| Cn1nc(C(F)(F)C(F)(F)F)c(C(F)(F)F)c1-c1nn[nH]n1 [5-[1-methyl-3-(pentafluoroethyl)-4-(trifluoromethyl)-1H-pyrazol-5-yl]-2H-tetrazole] | 2.11 |  |
| Cn1cc(C(F)(F)F)c(C(F)(F)C(F)(F)F)n1 [1-methyl-3-(1,1,2,2,2-pentafluoroethyl)-4-(trifluoromethyl)pyrazole] |  | chromatographic logP [1]: 3.23 |
| O=C(NC1CC1)c1cc(-n2cc(Br)cn2)ccc1Cl [5-(4-bromopyrazol-1-yl)-2-chloro-N-cyclopropylbenzamide] | 2.36 |  |
| O=C(NC1CC1)c1cc(B(O)O)ccc1Cl [[4-chloro-3-(cyclopropylcarbamoyl)phenyl]boronic acid] | 0.96 |  |
| Cn1nc(C(F)(F)C(F)(F)F)c(C(F)(F)F)c1-c1c[nH]nn1 [4-[1-methyl-3-(pentafluoroethyl)-4-(trifluoromethyl)-1H-pyrazol-5-yl]-1H-1,2,3-triazole] | 2.78 |  |
| Cn1nc(C(F)(F)C(F)(F)F)c(C(F)(F)F)c1B1OC(C)(C)C(C)(C)O1 [1-methyl-3-(1,1,2,2,2-pentafluoroethyl)-5-(4,4,5,5-tetramethyl-1,3,2-dioxaborolan-2-yl)-4-(trifluoromethyl)pyrazole] | 5.05 |  |
| Cn1nc(C(F)(F)C(F)(F)F)c(C(F)(F)F)c1-c1cc[nH]n1 [2′-methyl-5′-(pentafluoroethyl)-4′-(trifluoromethyl)-1H,2′H-3,3′-bipyrazole] | 3.03 |  |
| CON(C)C(=O)c1c(C(F)(F)F)c(C(F)(F)C(F)(F)F)nn1C [N-methoxy-N,1-dimethyl-3-(pentafluoroethyl)-4-(trifluoromethyl)-1H-pyrazole-5-carboxamide] | 3.22 |  |
| CN(C)/C=C/C(=O)c1c(C(F)(F)F)c(C(F)(F)C(F)(F)F)nn1C [(2E)-3-(dimethylamino)-1-[1-methyl-3-(pentafluoroethyl)-4-(trifluoromethyl)-1H-pyrazol-5-yl]prop-2-en-1-one] | 2.77 |  |
| [N-]=[N+]=Nc1ccc(Cl)c(C(=O)NC2CC2)c1 [5-azido-2-chloro-N-cyclopropylbenzamide] | 1.8 |  |
| Cn1nc(C(F)(F)C(F)(F)F)c(C(F)(F)F)c1-c1ccn(-c2ccc(Cl)c(C(=O)NC3CC3)c2)n1 [Id-1, 2-chloro-N-cyclopropyl-5-[2′-methyl-5′-(pentafluoroethyl)-4′-(trifluoromethyl)-1H,2′H-3,3′-bipyrazol-1-yl]benzamide] | 4.05 | efficacy (Spodoptera frugiperda): 100%; efficacy (Phaedon cochleariae; application rate 100 g/ha): 100% |
